For 19 compounds, EC50 and Emax results are on record in patent US9751869B2, “LXR modulators” (BRISTOL-MYERS SQUIBB COMPANY, priority 2013, dated 2017).

In general, EC50 refers to the midpoint of the concentration-response curve.

This experiment concerns the target T1, LXRβ (Homo sapiens, UniProt P55055).
T1 construct: Co-transfection expression plasmids, comprising full-length LXRα (pCMX-h LXRα or LXRβ (pCMX-hLXRβ)); expressed in transfected cells; host or cells: CV-1 African green monkey kidney cells, transient transfection with pCMX-hLXRβ
T1 sequence (P55055 1-460): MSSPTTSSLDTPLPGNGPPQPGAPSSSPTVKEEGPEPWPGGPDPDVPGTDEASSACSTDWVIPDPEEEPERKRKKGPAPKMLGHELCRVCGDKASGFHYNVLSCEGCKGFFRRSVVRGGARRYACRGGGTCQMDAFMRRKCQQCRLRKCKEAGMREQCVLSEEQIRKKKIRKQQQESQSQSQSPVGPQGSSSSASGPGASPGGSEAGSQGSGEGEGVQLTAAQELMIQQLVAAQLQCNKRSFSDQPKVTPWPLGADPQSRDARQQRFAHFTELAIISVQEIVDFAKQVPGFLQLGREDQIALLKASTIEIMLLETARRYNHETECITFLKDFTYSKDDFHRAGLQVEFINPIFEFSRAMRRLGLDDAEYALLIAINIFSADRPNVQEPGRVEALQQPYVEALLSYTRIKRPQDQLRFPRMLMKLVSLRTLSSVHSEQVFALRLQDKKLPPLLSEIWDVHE
T1 sequence (P19793 1-462 partner): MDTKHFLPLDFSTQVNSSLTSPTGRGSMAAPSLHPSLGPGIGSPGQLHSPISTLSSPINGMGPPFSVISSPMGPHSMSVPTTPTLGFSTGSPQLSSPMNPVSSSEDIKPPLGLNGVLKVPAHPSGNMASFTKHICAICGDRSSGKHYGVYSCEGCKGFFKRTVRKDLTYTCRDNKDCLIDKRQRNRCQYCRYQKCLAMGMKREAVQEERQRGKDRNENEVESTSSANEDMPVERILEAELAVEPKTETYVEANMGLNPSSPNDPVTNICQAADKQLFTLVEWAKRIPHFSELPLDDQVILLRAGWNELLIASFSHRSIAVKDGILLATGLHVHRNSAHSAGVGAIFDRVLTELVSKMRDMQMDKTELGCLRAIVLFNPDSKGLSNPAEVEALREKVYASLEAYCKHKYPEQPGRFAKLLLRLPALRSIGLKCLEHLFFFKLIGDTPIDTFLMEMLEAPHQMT
Nature of the experiment: LXR/LXRE co-transfection assay (luciferase reporter) in CV-1 cells, LXRβ. The experiment is classed as cell-based. The settings on record: for EC50: CV-1 cells transfected with pCMX-hLXRβ and LXREx1-Tk-Luciferase, 20 hours incubation, read-out: LXRbeta agonism EC50; for Emax: CV-1 cells, relative to maximum response of high control N-(3-((4-fluorophenyl)-(naphthalene-2-sulfonyl)amino)propyl)-2,2-dimethylpropionamide, read-out: LXRbeta % EFFICACY
The method, boiled down:
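CV-1 cells transiently co-transfected with full-length human LXRβ, LXRE-Tk-luciferase reporter and β-galactosidase control, then exposed to compound (≤0.5% DMSO) for 20 h at 37 °C before luminescence read. EC50 from 10-point, half-log dose curves; efficacy relative to the sulfonamide high control, means of 2–3 experiments.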
On the technique in general: Reporter assays use an easily measured gene product as a stand-in for the process of interest.

With `Cc1nc(-c2ccc(OC(F)(F)F)cc2)c(-c2cc(-c3cccc(C(C)(C)C(N)=O)c3)ccc2-n2cc(Cl)c(C(F)(F)F)n2)o1` [Example 430, 2-(4′-(4-chloro-3-(trifluoromethyl)-1H-pyrazol-1-yl)-3′-(2-methyl-4-(4-(trifluoromethoxy)phenyl)oxazol-5-yl)-[1,1′-biphenyl]-3-yl)-2-methylpropanamide], the EC50 was found to be 41 nM and the Emax is 80%.

For `Cc1nc(-c2ccc(OC(F)F)cc2Cl)c(-c2cc(-c3cccc(S(C)(=O)=O)c3)ccc2-n2cc(Cl)c(C(F)(F)F)n2)o1` [Example 431], the EC50 was determined as 37 nM and the Emax was 69%.

As to `Cc1nc(-c2ccc(OC(F)F)cc2Cl)c(-c2cc(-c3cc(F)c(CO)c(S(C)(=O)=O)c3)ccc2-n2cc(Cl)c(C(F)(F)F)n2)o1` [Example 432, (4′-(4-chloro-3-(trifluoromethyl)-1H-pyrazol-1-yl)-3′-(4-(2-chloro-4-(difluoromethoxy)phenyl)-2-methyloxazol-5-yl)-3-fluoro-5-(methylsulfonyl)-[1,1′-biphenyl]-4-yl)methanol], the EC50 turned out to be 19 nM and the Emax is 79%.

For the compound `Cc1nc(-c2ccc(OC(F)F)c(F)c2)c(-c2cc(-c3cccc(S(C)(=O)=O)c3)ccc2-n2cc(Cl)c(C(F)(F)F)n2)o1` [Example 433], the EC50 turned out to be 50 nM and the Emax was 83%.

In the case of `Cc1nc(-c2ccc(OC(F)F)c(F)c2)c(-c2cc(-c3cc(F)c(CO)c(S(C)(=O)=O)c3)ccc2-n2cc(Cl)c(C(F)(F)F)n2)o1` [Example 434, (4′-(4-chloro-3-(trifluoromethyl)-1H-pyrazol-1-yl)-3′-(4-(4-(difluoromethoxy)-3-fluorophenyl)-2-methyloxazol-5-yl)-3-fluoro-5-(methylsulfonyl)-[1,1′-biphenyl]-4-yl)methanol], the EC50 was 13 nM and the Emax came to 78%.

As to `Cc1nc(-c2ccc(OC(F)F)cc2)c(-c2cc(-c3cccc(S(C)(=O)=O)c3)ccc2-n2ccc(C(F)(F)F)n2)o1` [Example 435, 4-(4-(difluoromethoxy)phenyl)-2-methyl-5-(3′-(methylsulfonyl)-4-(3-(trifluoromethyl)-1H-pyrazol-1-yl)-[1,1′-biphenyl]-3-yl)oxazole], the 50% effective concentration (EC50) is 30 nM and the Emax was 53%.

Consider `Cc1nc(-c2ccc(OC(F)F)cc2)c(-c2cc(-c3cc(F)c(CO)c(S(C)(=O)=O)c3)ccc2-n2ccc(C(F)(F)F)n2)o1` [Example 436, (3′-(4-(4-(difluoromethoxy)phenyl)-2-methyloxazol-5-yl)-3-fluoro-5-(methylsulfonyl)-4′-(3-(trifluoromethyl)-1H-pyrazol-1-yl)-[1,1′-biphenyl]-4-yl)methanol], for which the EC50 amounted to 6 nM and the Emax stood at 61%.

As to `Cc1nc(-c2ccc(C(F)(F)F)cc2)c(-c2cc(-c3cccc(S(C)(=O)=O)c3)ccc2-n2cc(Cl)c(C(F)(F)F)n2)o1` [Example 437, 5-(4-(4-chloro-3-(trifluoromethyl)-1H-pyrazol-1-yl)-3′-(methylsulfonyl)-[1,1′-biphenyl]-3-yl)-2-methyl-4-(4-(trifluoromethyl)phenyl)oxazole], the EC50 worked out at 321 nM and the Emax is 49%.

On to `Cc1nc(-c2ccc(C(F)(F)F)cc2)c(-c2cc(-c3cc(F)c(CO)c(S(C)(=O)=O)c3)ccc2-n2cc(Cl)c(C(F)(F)F)n2)o1` [Example 438, (4′-(4-chloro-3-(trifluoromethyl)-1H-pyrazol-1-yl)-3-fluoro-3′-(2-methyl-4-(4-(trifluoromethyl)phenyl)oxazol-5-yl)-5-(methylsulfonyl)-[1,1′-biphenyl]-4-yl)methanol], for which the EC50 was found to be 128 nM and the Emax was 70%.

On to `Cc1nc(-c2ccc(OC(F)(F)F)cc2)c(-c2cc(-c3cc(F)c(CO)c(S(C)(=O)=O)c3)ccc2-n2cc(C)c(C(F)(F)F)n2)o1` [Example 439, (3-fluoro-4′-(4-methyl-3-(trifluoromethyl)-1H-pyrazol-1-yl)-3′-(2-methyl-4-(4-(trifluoromethoxy)phenyl)oxazol-5-yl)-5-(methylsulfonyl)-[1,1′-biphenyl]-4-yl)methanol], for which the EC50 was 38 nM and the Emax came out at 64%.

In the case of `Cc1nc(-c2ccc(OC(F)(F)F)cc2)c(-c2cc(-c3cccc(S(C)(=O)=O)c3)ccc2-n2cc(C)c(C(F)(F)F)n2)o1` [Example 440], the EC50 was found to be 51 nM and the Emax was determined as 62%.

Consider `Cc1nc(-c2ccc(OC(F)(F)F)cc2)c(-c2cc(-c3cccc(S(C)(=O)=O)c3)ccc2-n2cc(Cl)c(C(C)(C)O)n2)o1` [Example 441, 2-(4-chloro-1-(3-(2-methyl-4-(4-(trifluoromethoxy)phenyl)oxazol-5-yl)-3′-(methylsulfonyl)-[1,1′-biphenyl]-4-yl)-1H-pyrazol-3-yl) propan-2-ol], for which the EC50 was 176 nM and the Emax came out at 31%.

Consider `Cc1nc(-c2ccc(OC(F)(F)F)cc2)c(-c2cc(-c3cccc(S(C)(=O)=O)c3)ccc2-n2ccc(C(C)(F)F)n2)o1` [Example 442, 5-(4-(3-(1,1-difluoroethyl)-1H-pyrazol-1-yl)-3′-(methylsulfonyl)-[1,1′-biphenyl]-3-yl)-2-methyl-4-(4-(trifluoromethoxy)phenyl)oxazole], for which the EC50 was 52 nM and the Emax worked out at 60%.

In the case of `Cc1nc(-c2ccc(OC(F)(F)F)cc2)c(-c2cc(-c3cc(F)c(CO)c(S(C)(=O)=O)c3)ccc2-n2cc(Cl)c(C(C)(C)O)n2)o1` [Example 443], the EC50 was 22 nM and the Emax was 35%.

As to `CNS(=O)(=O)c1cccc(-c2ccc(-n3cc(Cl)c(C(F)(F)F)n3)c(-c3oc(C)nc3-c3ccc(OC(F)(F)F)cc3)c2)c1` [Example 444, 4′-(4-chloro-3-(trifluoromethyl)-1H-pyrazol-1-yl)-N-methyl-3′-(2-methyl-4-(4-(trifluoromethoxy)phenyl)oxazol-5-yl)-[1,1′-biphenyl]-3-sulfonamide], the EC50 was 76 nM and the Emax was 63%.

On to `CNS(=O)(=O)c1cccc(-c2ccc(-n3cc(Cl)c(C(F)(F)F)n3)c(-c3oc(C)nc3-c3cnc(OC)nc3)c2)c1` [Example 445, 4′-(4-chloro-3-(trifluoromethyl)-1H-pyrazol-1-yl)-3′-(4-(2-methoxypyrimidin-5-yl)-2-methyloxazol-5-yl)-N-methyl-[1,1′-biphenyl]-3-sulfonamide], for which the EC50 is 170 nM and the Emax worked out at 63%.

For `Cc1nc(-c2ccc(OC(F)(F)F)cc2)c(-c2cc(-c3cc(F)c(CO)c(S(C)(=O)=O)c3)ccc2-n2cc(C#N)c(C3CC3)n2)o1` [Example 446, 3-cyclopropyl-1-(3′-fluoro-4′-(hydroxymethyl)-3-(2-methyl-4-(4-(trifluoromethoxy)phenyl)oxazol-5-yl)-5′-(methylsulfonyl)-[1,1′-biphenyl]-4-yl)-1H-pyrazole-4-carbonitrile], the EC50 came out at 30 nM and the Emax worked out at 28%.

With `Cc1nc(-c2ccc(OC(F)(F)F)cc2)c(-c2cc(-c3cccc(S(C)(=O)=O)c3)ccc2-n2cc(C#N)c(C3CC3)n2)o1` [Example 447, 3-cyclopropyl-1-(3-(2-methyl-4-(4-(trifluoromethoxy)phenyl)oxazol-5-yl)-3′-(methylsulfonyl)-[1,1′-biphenyl]-4-yl)-1H-pyrazole-4-carbonitrile], the EC50 was 116 nM and the Emax was 28%.

As for `Cc1nc(-c2ccc(OC(F)(F)F)cc2)c(-c2cc(-c3cc(F)c(CO)c(S(C)(=O)=O)c3)ccc2-n2cc(C(N)=O)c(C3CC3)n2)o1` [Example 448, 3-cyclopropyl-1-(3′-fluoro-4′-(hydroxymethyl)-3-(2-methyl-4-(4-(trifluoromethoxy)phenyl)oxazol-5-yl)-5′-(methylsulfonyl)-[1,1′-biphenyl]-4-yl)-1H-pyrazole-4-carboxamide], the EC50 worked out at 279 nM and the Emax stood at 30%.
